Organism: Rattus norvegicus
Experiment: Open TG-GATES - Regimen: Single
Assay type: toxicity, organism-based, Sprague-Dawley
Parameters: regimen Single, gender Male, age 6 weeks
Conditions: in vivo, po, route gavage; for APTT / Bas / Eos / Fbg / Hb / Ht / Lym / MCH / MCHC / MCV / Mono / Neu / PT / Plat / RBC / Ret / WBC: tissue Blood; for KIDNEY_L / KIDNEY_R / KIDNEY_TOTAL: tissue Kidney; for LIVER: tissue Liver; for ALP / ALT / AST / BUN / CRE / Ca / DBIL / GLC / K / LDH / Na / PL / RALB / TBIL / TC / TG / TP / gamma-GTP / IP: tissue Plasma
[1] = 0 mg/kg, 3 h, dose level Control
[2] = 0 mg/kg, 6 h, dose level Control
[3] = 0 mg/kg, 9 h, dose level Control
[4] = 0 mg/kg, 24 h, dose level Control
[5] = 50 mg/kg, 3 h, dose level Middle

## Oc1ncnc2[nH]ncc12 [ALLOPURINOL]
[1]
  TERMINAL_BW: 209.8 g
  APTT: 16.7 s
  Bas: 0%
  Eos: 0.8%
  Fbg: 211 mg/dL
  Hb: 14 g/dL
  Ht: 41.7%
  Lym: 73.2%
  MCH: 21.9 pg
  MCHC: 33.7%
  MCV: 65.1 fL
  Mono: 7.4%
  Neu: 18.6%
  PT: 12.3 s
  Plat: 111.5 x10_4/uL
  RBC: 641.2 x10_4/ul
  Ret: 8.1%
  WBC: 95.8 x10_2/uL
  KIDNEY_L: 1 g
  KIDNEY_R: 1 g
  KIDNEY_TOTAL: 1.9 g
  LIVER: 10.1 g
  ALP: 925 IU/L
  ALT: 30.8 IU/L
  AST: 60 IU/L
  BUN: 12 mg/dL
  CRE: 0.5 mg/dL
  Ca: 10.9 mg/dL
  DBIL: 0.058 mg/dL
  GLC: 189.4 mg/dL
  K: 4.8 meq/L
  LDH: 96.6 IU/L
  Na: 139.2 meq/L
  PL: 137.4 mg/dL
  RALB: 3.7 g/dL
  TBIL: 0.4 mg/dL
  TC: 71.8 mg/dL
  TG: 59.4 mg/dL
  TP: 5.6 g/dL
  gamma-GTP: 1.4 IU/L
[2]
  TERMINAL_BW: 210 g
  APTT: 16.3 s
  Bas: 0%
  Eos: 1%
  Fbg: 212.6 mg/dL
  Hb: 14.1 g/dL
  Ht: 42%
  Lym: 80%
  MCH: 22.2 pg
  MCHC: 33.4%
  MCV: 66.3 fL
  Mono: 5.6%
  Neu: 13.6%
  PT: 12.3 s
  Plat: 111.5 x10_4/uL
  RBC: 634 x10_4/ul
  Ret: 8.2%
  WBC: 98.8 x10_2/uL
  KIDNEY_L: 0.9 g
  KIDNEY_R: 0.9 g
  KIDNEY_TOTAL: 1.8 g
  LIVER: 9.5 g
  ALP: 787 IU/L
  ALT: 31.8 IU/L
  AST: 62.2 IU/L
  BUN: 11.2 mg/dL
  CRE: 0.4 mg/dL
  Ca: 11.1 mg/dL
  DBIL: 0.032 mg/dL
  GLC: 185.4 mg/dL
  K: 5 meq/L
  LDH: 96.6 IU/L
  Na: 139 meq/L
  PL: 132 mg/dL
  RALB: 3.8 g/dL
  TBIL: 0.3 mg/dL
  TC: 71.8 mg/dL
  TG: 54.4 mg/dL
  TP: 5.6 g/dL
  gamma-GTP: 0.8 IU/L
[3]
  TERMINAL_BW: 204.6 g
  APTT: 16.6 s
  Bas: 0%
  Eos: 1%
  Fbg: 221.2 mg/dL
  Hb: 13.8 g/dL
  Ht: 41.1%
  Lym: 71.4%
  MCH: 21.8 pg
  MCHC: 33.7%
  MCV: 64.8 fL
  Mono: 9.6%
  Neu: 18%
  PT: 12.3 s
  RBC: 633.4 x10_4/ul
  Ret: 7.5%
  WBC: 81.8 x10_2/uL
  KIDNEY_L: 0.9 g
  KIDNEY_R: 0.9 g
  KIDNEY_TOTAL: 1.9 g
  LIVER: 9 g
  ALP: 761 IU/L
  ALT: 28.6 IU/L
  AST: 61.2 IU/L
  BUN: 12.4 mg/dL
  CRE: 0.4 mg/dL
  DBIL: 0.018 mg/dL
  GLC: 197.8 mg/dL
  IP: 11.2 mg/dL
  K: 4.7 meq/L
  Na: 139.2 meq/L
  PL: 136.4 mg/dL
  RALB: 3.8 g/dL
  TBIL: 0.4 mg/dL
  TC: 73 mg/dL
  TG: 48 mg/dL
  TP: 5.7 g/dL
  gamma-GTP: 1.2 IU/L
[4]
  TERMINAL_BW: 223.3 g
  APTT: 16.3 s
  Bas: 0.2%
  Eos: 0.8%
  Fbg: 219 mg/dL
  Hb: 13.4 g/dL
  Ht: 39.8%
  Lym: 72%
  MCH: 21.8 pg
  MCHC: 33.6%
  MCV: 65 fL
  Mono: 12.4%
  Neu: 14.8%
  PT: 12 s
  Plat: 110.8 x10_4/uL
  RBC: 613.4 x10_4/ul
  Ret: 8.1%
  WBC: 97 x10_2/uL
  KIDNEY_L: 1 g
  KIDNEY_R: 1 g
  KIDNEY_TOTAL: 2 g
  ALP: 987.2 IU/L
  ALT: 31.2 IU/L
  AST: 63.4 IU/L
  BUN: 18 mg/dL
  CRE: 0.5 mg/dL
  DBIL: 0.02 mg/dL
  GLC: 193.2 mg/dL
  IP: 8.4 mg/dL
  K: 5.1 meq/L
  LDH: 94 IU/L
  Na: 138 meq/L
  PL: 153.4 mg/dL
  RALB: 3.8 g/dL
  TBIL: 0.3 mg/dL
  TC: 81.6 mg/dL
  TG: 99 mg/dL
  TP: 5.7 g/dL
  gamma-GTP: 1.2 IU/L
15 mg/kg, 3 h, dose level Low
  TERMINAL_BW: 213.7 g
  APTT: 16.3 s
  Bas: 0%
  Eos: 1%
  Fbg: 209.6 mg/dL
  Hb: 13.9 g/dL
  Ht: 41.2%
  Lym: 80.4%
  MCH: 22 pg
  MCHC: 33.8%
  MCV: 65 fL
  Mono: 7.4%
  Neu: 11.2%
  PT: 12.5 s
  RBC: 636 x10_4/ul
  Ret: 8.4%
  WBC: 99.2 x10_2/uL
  KIDNEY_L: 1 g
  KIDNEY_R: 1 g
  KIDNEY_TOTAL: 2 g
  ALP: 884.4 IU/L
  ALT: 35.4 IU/L
  AST: 64.4 IU/L
  BUN: 12.4 mg/dL
  CRE: 0.5 mg/dL
  Ca: 11.3 mg/dL
  DBIL: 0.086 mg/dL
  GLC: 183.8 mg/dL
  K: 4.9 meq/L
  LDH: 115.4 IU/L
  Na: 139.2 meq/L
  PL: 132.8 mg/dL
  RALB: 3.7 g/dL
  TBIL: 0.4 mg/dL
  TC: 73.4 mg/dL
  TG: 54.6 mg/dL
  TP: 5.5 g/dL
  gamma-GTP: 1.6 IU/L
15 mg/kg, 6 h, dose level Low
  TERMINAL_BW: 209.5 g
  APTT: 16.8 s
  Bas: 0%
  Eos: 0.4%
  Fbg: 206.8 mg/dL
  Hb: 13.6 g/dL
  Ht: 40.5%
  Lym: 79%
  MCH: 21.8 pg
  MCHC: 33.5%
  MCV: 65.3 fL
  Mono: 6.2%
  Neu: 14.2%
  PT: 12.4 s
  Plat: 109.1 x10_4/uL
  RBC: 620.2 x10_4/ul
  Ret: 8.1%
  WBC: 101.3 x10_2/uL
  KIDNEY_L: 1 g
  KIDNEY_R: 1 g
  KIDNEY_TOTAL: 2 g
  LIVER: 9.6 g
  ALP: 695 IU/L
  ALT: 30 IU/L
  AST: 58 IU/L
  BUN: 11 mg/dL
  CRE: 0.5 mg/dL
  Ca: 11.4 mg/dL
  DBIL: 0.024 mg/dL
  GLC: 187 mg/dL
  IP: 10.1 mg/dL
  K: 4.8 meq/L
  LDH: 74.8 IU/L
  Na: 138.4 meq/L
  PL: 126.6 mg/dL
  RALB: 3.7 g/dL
  TBIL: 0.3 mg/dL
  TC: 67.6 mg/dL
  TG: 60.8 mg/dL
  TP: 5.5 g/dL
  gamma-GTP: 1 IU/L
15 mg/kg, 9 h, dose level Low
  TERMINAL_BW: 204 g
  APTT: 16.6 s
  Bas: 0%
  Eos: 1.2%
  Fbg: 221.6 mg/dL
  Hb: 13.6 g/dL
  Ht: 40.7%
  Lym: 66.4%
  MCH: 21.7 pg
  MCHC: 33.4%
  MCV: 65 fL
  Mono: 11.8%
  Neu: 20.4%
  PT: 12.3 s
  RBC: 626.6 x10_4/ul
  Ret: 7.9%
  WBC: 92.7 x10_2/uL
  KIDNEY_L: 1 g
  KIDNEY_R: 1 g
  KIDNEY_TOTAL: 1.9 g
  LIVER: 9.1 g
  ALP: 837 IU/L
  ALT: 27.6 IU/L
  AST: 58.8 IU/L
  BUN: 13 mg/dL
  CRE: 0.4 mg/dL
  DBIL: 0.042 mg/dL
  GLC: 198.8 mg/dL
  K: 4.8 meq/L
  LDH: 74.6 IU/L
  Na: 138.6 meq/L
  PL: 129.8 mg/dL
  RALB: 3.8 g/dL
  TBIL: 0.3 mg/dL
  TC: 69.2 mg/dL
  TG: 53.2 mg/dL
  TP: 5.7 g/dL
  gamma-GTP: 1.4 IU/L
15 mg/kg, 24 h, dose level Low
  TERMINAL_BW: 224.8 g
  APTT: 16.1 s
  Bas: 0%
  Eos: 1.2%
  Fbg: 213.8 mg/dL
  Hb: 13.6 g/dL
  Ht: 40.8%
  Lym: 79.4%
  MCH: 21.8 pg
  MCHC: 33.3%
  MCV: 65.4 fL
  Mono: 7.2%
  Neu: 12.4%
  PT: 12.2 s
  Plat: 113.4 x10_4/uL
  RBC: 623 x10_4/ul
  Ret: 7.9%
  WBC: 93.3 x10_2/uL
  KIDNEY_L: 1 g
  KIDNEY_R: 1 g
  KIDNEY_TOTAL: 2 g
  ALP: 884.8 IU/L
  ALT: 33.2 IU/L
  AST: 61.6 IU/L
  BUN: 17.8 mg/dL
  CRE: 0.5 mg/dL
  DBIL: 0.024 mg/dL
  GLC: 187.4 mg/dL
  IP: 8 mg/dL
  K: 5 meq/L
  LDH: 85.2 IU/L
  Na: 138.8 meq/L
  PL: 149.8 mg/dL
  RALB: 3.6 g/dL
  TBIL: 0.3 mg/dL
  TC: 78 mg/dL
  TG: 91.4 mg/dL
  TP: 5.7 g/dL
  gamma-GTP: 1.8 IU/L
[5]
  TERMINAL_BW: 210.9 g
  APTT: 16.6 s
  Bas: 0%
